# Calls of active or inactive are those of the source. No cut-off for these calls is given here.
# Columns and labels:
# [1] = (§1) Cytotoxicity against human HL60 cells assessed as cell survival at 50 uM after 72 hrs by CCK8 assay; type: functional; settings: HL-60, 72 h, read-out: Survival
# [2] = Retention time of the compound by UPLC analysis; type: physicochemical
# HL-60 [3] = experiment: as §1; type: functional
# HL-60 [4] = experiment: Induction of apoptosis in human HL60 cells assessed as nuclear fragmentation at 50 uM by Hoechst 33342 staining method; type: functional, cell-based
# HL-60 [5] = experiment: Induction of cell morphological changes in human HL60 cells assessed as increase in cellular size at 50 uM by Giemsa staining method; type: functional, cell-based
# HL-60 [6] = experiment: Induction of apoptosis in human HL60 cells assessed as membrane blebbing at 50 uM by Hoechst 33342 staining method; type: functional, cell-based
# HL-60 [7] = experiment: Induction of apoptosis in human HL60 cells assessed as chromatin condensation at 50 uM by Hoechst 33342 staining method; type: functional, cell-based
# HL-60 [8] = experiment: Induction of cell morphological changes in human HL60 cells assessed as increase in nuclear complexity at 50 uM by Giemsa staining method; type: functional, cell-based
# HL-60 [9] = experiment: Induction of cell morphological changes in human HL60 cells assessed as increase in cytoplasmic content at 50 uM by Giemsa staining method; type: functional, cell-based
structure (smiles),measurement,setting,value
C[C@@H]1O[C@@H](Oc2c(-c3ccc(O)cc3)oc3cc(O)cc(O)c3c2=O)[C@H](O)[C@H](O)[C@H]1O [AFZELIN],viability at 50 µM,[1],45.8%
same,Retention_time,[2],25.42 min
O=C(O)c1cc(O)c(O)c(O)c1 [GALLIC ACID],viability at 50 µM,[1],4.3%
same,Retention_time,[2],5.04 min
O=c1c(O)c(-c2ccc(O)cc2)oc2cc(O)cc(O)c12,Activity,HL-60 [3],Active
CCOC(=O)c1cc(O)c(O)c(O)c1 [ETHYLGALLATE],viability at 50 µM,[1],55.7%
same,Retention_time,[2],20.55 min
Oc1cc(O)c2c(c1)O[C@H](c1ccc(O)c(O)c1)[C@H](O)C2 [(-)-EPICATECHIN],Retention_time,[2],17.1 min
O=C(OC[C@H]1O[C@@H](Oc2c(-c3ccc(O)cc3)oc3cc(O)cc(O)c3c2=O)[C@H](OC(=O)c2cc(O)c(O)c(O)c2)[C@@H](O)[C@@H]1O)c1cc(O)c(O)c(O)c1,Activity,HL-60 [4],Active
same,Activity,HL-60 [5],Active
same,viability at 50 µM,[1],24.6%
same,Activity,HL-60 [6],Active
same,Retention_time,[2],23.37 min
same,Activity,HL-60 [7],Active
same,Activity,HL-60 [8],Active
same,Activity,HL-60 [9],Active
O=C(O[C@H]1[C@H](Oc2c(-c3ccc(O)cc3)oc3cc(O)cc(O)c3c2=O)O[C@H](CO)[C@@H](O)[C@@H]1O)c1cc(O)c(O)c(O)c1,viability at 50 µM,[1],48.3%
same,Retention_time,[2],27.02 min
O=c1c(O)c(-c2ccc(O)c(O)c2)oc2cc(O)cc(O)c12 [QUERCETIN],viability at 50 µM,[1],29.7%
same,Retention_time,[2],28.97 min
C[C@@H]1O[C@@H](Oc2c(-c3ccc(O)c(O)c3)oc3cc(O)cc(O)c3c2=O)[C@H](O)[C@H](O)[C@H]1O [QUERCITRIN],viability at 50 µM,[1],46.8%
same,Retention_time,[2],23.37 min
Oc1cc(O)c2c(c1)O[C@H](c1ccc(O)c(O)c1)[C@@H](O)[C@@H]2c1c(O)cc(O)c2c1O[C@H](c1ccc(O)c(O)c1)[C@@H](O)C2,viability at 50 µM,[1],58.9%
same,Retention_time,[2],14.6 min
Oc1cc(O)c2c(c1)O[C@H](c1ccc(O)c(O)c1)[C@@H](O)C2 [CIANIDANOL],viability at 50 µM,[1],47%
same,Retention_time,[2],13.56 min
O=c1c(O[C@@H]2O[C@H](CO)[C@@H](O)[C@H](O)[C@H]2O)c(-c2ccc(O)cc2)oc2cc(O)cc(O)c12,Activity,HL-60 [3],Active

# — ChEMBL document CHEMBL3352448, “Phytochemical analysis and antileukemic activity of polyphenolic constituents of Toona sinensis” (Bioorg Med Chem Lett, 2014)
